For assay [1], the target named is T1, SENP1-C603A (Homo sapiens, UniProt Q9P0U3, C603A).
T1 construct: made in house; host or cells: E. coli implied (pGEX-4T1 vector)
T1 sequence (Q9P0U3 1-644 C603A): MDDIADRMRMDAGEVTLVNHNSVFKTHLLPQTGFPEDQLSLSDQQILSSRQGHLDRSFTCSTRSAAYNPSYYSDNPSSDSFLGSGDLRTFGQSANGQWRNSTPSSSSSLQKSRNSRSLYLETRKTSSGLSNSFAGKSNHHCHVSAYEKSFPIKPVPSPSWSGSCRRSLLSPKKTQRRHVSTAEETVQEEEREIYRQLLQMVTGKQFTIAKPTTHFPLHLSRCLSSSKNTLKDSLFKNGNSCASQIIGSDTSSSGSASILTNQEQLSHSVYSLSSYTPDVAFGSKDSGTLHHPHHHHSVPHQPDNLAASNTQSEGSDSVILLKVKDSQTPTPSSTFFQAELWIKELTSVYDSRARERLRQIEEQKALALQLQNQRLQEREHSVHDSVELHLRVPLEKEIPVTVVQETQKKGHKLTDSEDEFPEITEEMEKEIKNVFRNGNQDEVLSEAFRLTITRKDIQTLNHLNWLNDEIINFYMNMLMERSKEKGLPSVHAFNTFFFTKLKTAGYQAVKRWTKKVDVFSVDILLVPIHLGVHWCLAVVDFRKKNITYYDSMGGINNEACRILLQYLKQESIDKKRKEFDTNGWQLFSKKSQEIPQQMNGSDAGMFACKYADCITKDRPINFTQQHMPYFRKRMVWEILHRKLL
The assay can be described thus: In vitro thermal shift assay with mutant SENP1-C603A. The assay is classed as binding. The settings on record: purified mutant SENP1-C603A.

Assay [2] deals with T2, SENP1 (Homo sapiens, UniProt Q9P0U3).
T2 sequence (Q9P0U3 1-644): T1 sequence (Q9P0U3 1-644 C603A) with A603C
The assay can be described thus: SENP1 inhibition in IGROV1 cells (SUMOylated JAK2, Western blot). Format: cell-based. On the set-up: endogenous in cells; host or cells: IGROV1. The settings on record: incubated 48 hours, read-out: inhibited deSUMOylation of JAK2 with IC50. Here is the method:
FIGS. 11A-11L depict images illustrating identification of a novel potent SENP1 inhibitor, UA. FIGS. 11A and 11B show Mc (FIG. 11A) and UA (FIG. 11B) inhibited SENP1 activity in vivo. IGROV1 cells were incubated with Mc or UA for 48 hours and harvested for Western blot for indicated proteins. […]. Intensity of SUMOylated JAK2 in B was measured by Quantity One software. FIGS. 11D and 11E show Mc (FIG. 11D) and UA (FIG. 11E) inhibited SENP1 activity in vitro. Recombinant His-JAK2 was SUMOylated as in FIG. 2F, followed by incubation with recombinant GST-SENP1 together with Mc or UA for 3 hours (h). […]. Intensity of SUMOylated JAK2 was measured by Quantity One software. […] SENP1 stability was analyzed using Western blot against SENP1 antibody in IGROV1 cells. […] SENP1 stability was analyzed by using Western blot against SENP1 antibody. […] Green: UA; Salmon: interface. Right panel, active residues of SENP1 for SENP1:UA complex. Green: UA; Salmon: active residues. […] Stability of SENP1-C603A was analyzed by using Western blot against SENP1 antibody
To determine the functional consequence of SENP1-JAK2 interaction, it was examined whether inhibition of SENP1 affected SUMOylation of JAK2. To this end, JAK2 was immunoprecipitated and the SUMOylation level of JAK2 was evaluated using an antibody against SUMO2/3 in SENP1 depleted cells.
For orientation: A western blot detects proteins with antibodies after separation by electrophoresis.

Substitutions are numbered along the chain they refer to.

As for `CC1(C)CC[C@]2(C(=O)O)CC[C@]3(C)C(=CC[C@@H]4[C@@]5(C)CC[C@H](O[C@@H]6O[C@H](C(=O)O)[C@@H](O)[C@H](O[C@@H]7OC[C@@H](O)[C@H](O)[C@H]7O)[C@H]6O)C(C)(C)[C@@H]5CC[C@]43C)[C@@H]2C1` [Mc, Momordin Ic], the “thermal stabilization of SENP1-C603A proteins” value in assay [1] is “no longer stabilized”. The IC50 – broadly, the concentration at which inhibition is half-maximal – in assay [2] stood at 31.8 µM.
`C[C@H]1[C@H](C)CC[C@]2(C(=O)O)CC[C@]3(C)C(=CC[C@@H]4[C@@]5(C)CC[C@H](O)C(C)(C)[C@@H]5CC[C@]43C)[C@H]12` [UA, ursolic acid]: the “thermal stabilization of SENP1-C603A proteins” value in assay [1] is on record as “no longer stabilized”. The IC50 in assay [2] stood at 0.24 µM.
